Test results taken from patent publication US20090069320A1, “Substituted 4-Amino-Quinazoline Compounds with Metabotropic Glutamate Receptor Regulating Activity and Uses Thereof” (Gruenenthal GmbH, priority 2006, published 2009).
Structures can show the parent of a compound that is named as a salt.

Molecular target: T1, mGluR5 receptor (Sus scrofa, UniProt I3LUI7)
T1 construct: 450 μg of protein from brain homogenate with 5 nM ^3[H]-MPEP; from tissue; host or cells: pig brain halves without medulla, cerebellum and pons
Test: [3H]-MPEP mGluR5 receptor binding assay (pig brain homogenate)
Settings: 5 nM [3H]-MPEP, read-out: IC50 mGluR5 Receptor (pig) [^3H]-MPEP Bond
How it was run: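 Radioligand displacement of 5 nM [3H]-MPEP from pig brain homogenate (450 μg protein; medulla, cerebellum and pons removed) in 20 mM Hepes pH 8.0. Compounds were tested at 10 μM, incubated 60 min at room temperature, then filtered and counted by scintillation. Non-specific binding was defined with 10 μM MPEP.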

T1 sequence (I3LUI7 19-1212): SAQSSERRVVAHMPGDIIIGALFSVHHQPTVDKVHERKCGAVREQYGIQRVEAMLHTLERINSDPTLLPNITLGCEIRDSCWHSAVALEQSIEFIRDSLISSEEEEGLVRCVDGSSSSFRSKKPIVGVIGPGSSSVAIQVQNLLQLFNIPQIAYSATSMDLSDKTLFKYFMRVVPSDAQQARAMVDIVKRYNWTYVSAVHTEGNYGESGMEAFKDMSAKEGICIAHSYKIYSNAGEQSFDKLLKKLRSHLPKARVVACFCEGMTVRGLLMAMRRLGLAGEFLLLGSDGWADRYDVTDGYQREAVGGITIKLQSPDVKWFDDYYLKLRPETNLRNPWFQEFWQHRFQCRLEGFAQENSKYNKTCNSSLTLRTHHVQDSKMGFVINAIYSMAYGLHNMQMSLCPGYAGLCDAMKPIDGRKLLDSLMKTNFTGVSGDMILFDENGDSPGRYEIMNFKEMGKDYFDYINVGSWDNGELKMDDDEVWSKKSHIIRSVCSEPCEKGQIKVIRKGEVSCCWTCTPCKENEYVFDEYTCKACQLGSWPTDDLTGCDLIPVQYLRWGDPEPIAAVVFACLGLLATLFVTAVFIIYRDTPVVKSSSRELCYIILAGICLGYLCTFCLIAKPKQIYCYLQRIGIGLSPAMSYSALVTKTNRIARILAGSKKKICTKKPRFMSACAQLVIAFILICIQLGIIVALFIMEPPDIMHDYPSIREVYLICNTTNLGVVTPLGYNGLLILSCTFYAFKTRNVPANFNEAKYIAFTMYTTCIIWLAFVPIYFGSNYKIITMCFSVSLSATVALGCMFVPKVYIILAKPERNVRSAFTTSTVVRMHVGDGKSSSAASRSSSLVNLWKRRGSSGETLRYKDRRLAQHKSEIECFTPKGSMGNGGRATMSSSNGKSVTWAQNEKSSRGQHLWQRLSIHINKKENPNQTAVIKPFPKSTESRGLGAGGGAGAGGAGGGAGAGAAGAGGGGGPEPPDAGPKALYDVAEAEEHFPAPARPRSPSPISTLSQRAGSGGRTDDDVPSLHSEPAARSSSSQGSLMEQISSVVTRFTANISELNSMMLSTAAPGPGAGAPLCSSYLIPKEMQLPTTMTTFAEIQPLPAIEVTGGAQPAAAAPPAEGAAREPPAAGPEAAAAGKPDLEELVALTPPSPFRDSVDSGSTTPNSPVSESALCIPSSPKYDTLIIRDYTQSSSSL

IC50	SMILES
820 nM	CC(c1cccc(-c2ccc3ncnc(NC4CC4)c3c2)c1)N(C(=O)c1ccccc1)C1CC1 (centres unmarked) [Example 233, N-cyclopropyl-N-{1-[3-(4-cyclopropylamino-quinazolin-6-yl)-phenyl]-ethyl}-benzamide]
15300 nM	CN(c1ncnc2ccc(-c3cccc(CN(C(=O)c4ccccn4)C4CC4)c3)cc12)C1CC1 [Example 272, N-cyclopropyl-N-(3-(4-(cyclopropyl(methyl)amino)quinazolin-6-yl)benzyl)picolinamide]
40 nM	N#CCC(=O)N(Cc1cc(-c2ccc3ncnc(NC4CC4)c3c2)ccc1F)C1CC1 [Example 277, 2-cyano-N-cyclopropyl-N-(5-(4-(cyclopropylamino)quinazolin-6-yl)-2-fluorobenzyl)acetamide]

The remaining lines, values behind:

SMILES	IC50
CCCCN(Cc1cccc(-c2ccc3ncnc(NC4CC4)c3c2)c1)C(C)=O [Example 218, N-butyl-N-[3-(4-cyclopropylamino-quinazolin-6-yl)-benzyl]-acetamide; hydrochloride]	2990 nM
O=C(CC(F)(F)F)N(Cc1cccc(-c2ccc3ncnc(NC4CC4)c3c2)c1)C1CC1 [Example 205, N-cyclopropyl-N-[3-(4-cyclopropylamino-quinazolin-6-yl)-benzyl]-3,3,3-trifluoro-propionamide; hydrochloride]	330 nM
O=C1CCC(=O)N1Cc1cccc(-c2ccc3ncnc(NC4CC4)c3c2F)c1 [Example 904, 1-(3-(4-(cyclopropylamino)-5-fluoroquinazolin-6-yl)benzyl)pyrrolidine-2,5-dione]	220 nM
CCCN(Cc1cccc(-c2ccc3ncnc(NC4CC4)c3c2)c1)C(C)=O [Example 887, N-(3-(4-(cyclopropylamino)quinazolin-6-yl)benzyl)-N-propylacetamide hydrochloride]	3100 nM
C=CCN(Cc1cccc(-c2ccc3ncnc(NC4CC4)c3c2)c1)C(C)=O [Example 886, N-allyl-N-(3-(4-(cyclopropylamino)quinazolin-6-yl)benzyl)acetamide]	1980 nM

Same assay, conditions: 10 μM compound, 5 nM [3H]-MPEP

% Inhibition of mGluR5 Receptor (pig) [^3H]-MPEP Bond at 10 μM	SMILES
92%	CC(C)(C)Nc1ncnc2ccc(-c3ccc(F)c(CN(C(=O)c4cccnc4)C4CC4)c3)cc12 [Example 838, N-(5-(4-(tert-butylamino)quinazolin-6-yl)-2-fluorobenzyl)-N-cyclopropyl nicotinamide]
86%	CC(C)(C)Nc1ncnc2ccc(-c3ccc(F)c(CN(C(=O)c4ccccc4)C4CC4)c3)cc12 [Example 837, N-(5-(4-(tert-butylamino)quinazolin-6-yl)-2-fluorobenzyl)-N-cyclopropyl benzamide]

The next lines start with the compound.

SMILES	% Inhibition of mGluR5 Receptor (pig) [^3H]-MPEP Bond at 10 μM
CN(Cc1cccc(-c2ccc3ncnc(NC4CC4)c3c2)c1)S(C)(=O)=O [Example 223, N-(3-(4-(cyclopropylamino)quinazolin-6-yl)benzyl)-N-methyl methane sulfonamide]	51%
CNc1ncnc2ccc(-c3cccc(CN(c4ccccc4F)S(=O)(=O)c4ccccc4)c3)cc12 [Example 852, N-(2-fluorophenyl)-N-(3-(4-(methylamino)quinazolin-6-yl)benzyl)benzole sulfonamide]	49%

Same assay, conditions: 10 μM compound, 5 nM [3H]-MPEP, read-out: % Inhibition of mGluR5 Receptor (pig) [^3H]-MPEP Bond at 10 μM

inhibition at 10 µM	SMILES
97%	Cc1nc(C(=O)N(Cc2cc(-c3ccc4ncnc(NC(C)(C)C)c4c3)ccc2F)C2CC2)cs1 [Example 825, N-(5-(4-(tert-butylamino)quinazolin-6-yl)-2-fluorobenzyl)-N-cyclopropyl-2-methylthiazole-4-carboxamide]
71%	COc1ccc(C(=O)N(Cc2cc(-c3ccc4ncnc(NC(C)(C)C)c4c3)ccc2F)C2CC2)cc1OC [Example 843, N-(5-(4-(tert-butylamino)quinazolin-6-yl)-2-fluorobenzyl)-N-cyclopropyl-3,4-dimethoxybenzamide]
74%	CC(C)(C)Nc1ncnc2ccc(-c3ccc(F)c(CN(C(=O)c4c(F)c(F)c(F)c(F)c4F)C4CC4)c3)cc12 [Example 840, N-(5-(4-(tert-butylamino)quinazolin-6-yl)-2-fluorobenzyl)-N-cyclopropyl-2,3,4,5,6-pentafluorobenzamide]
45%	CC(=O)N(Cc1ccccc1)Cc1cccc(-c2ccc3ncnc(NC4CC4)c3c2)c1 [Example 219, N-benzyl-N-[3-(4-cyclopropylamino-quinazolin-6-yl)-benzyl]-acetamide; hydrochloride]
38%	CCCN(Cc1cccc(-c2ccc3ncnc(Nc4ccccc4)c3c2)c1)C(=O)c1ccc(C(F)(F)F)cc1F [Example 93, 2-fluoro-N-[3-(4-phenylamino-quinazolin-6-yl)-benzyl]-N-propyl-4-trifluoromethyl-benzamide]
44%	Cc1cccc(CNc2ncnc3ccc(-c4cccc(CN(C(=O)c5ccccn5)C5CC5)c4)cc23)c1 [Example 395, N-cyclopropyl-N-(3-(4-(3-methylbenzylamino)quinazolin-6-yl)benzyl)picolinamide]
36%	CC(C)(C)C(=O)N(Cc1cccc(-c2ccc3ncnc(NCCc4ccccc4)c3c2)c1)C1CC1 [Example 401, N-cyclopropyl-N-(3-(4-(phenethylamino)quinazolin-6-yl)benzyl)pivalamide]
41%	Cc1nc(NC2CC2)c2cc(-c3ccc(F)c(CN(C(=O)c4ccccn4)C4CC4)c3)ccc2n1 [Example 604, N-cyclopropyl-N-(5-(4-(cyclopropylamino)-2-methylquinazolin-6-yl)-2-fluorobenzyl)picolinamide]
86%	O=C(COc1ccccc1)N(Cc1cccc(-c2ccc3ncnc(NC4CC4)c3c2)c1)C1CC1 [Example 164, N-cyclopropyl-N-[3-(4-cyclopropylamino-quinazolin-6-yl)-benzyl]-2-phenoxy-acetamide]
76%	CC(=O)N(Cc1cccc(-c2ccc3ncnc(NCc4cccc(C)c4)c3c2)c1)C1CC1 [Example 419, N-cyclopropyl-N-(3-(4-(3-methylbenzylamino)quinazolin-6-yl)benzyl)acetamide]
63%	CC(C)Nc1ncnc2ccc(-c3cccc(CN(Cc4ccccc4)C(=O)c4cccnc4)c3)cc12 [Example 153, N-benzyl-N-[3-(4-isopropylamino-quinazolin-6-yl)-benzyl]-nicotinamide]

Second part, the compound before the results:

SMILES	inhibition at 10 µM
Cc1cc(C(=O)N(Cc2cccc(-c3cc(F)c4ncnc(NC5CC5)c4c3)c2)C2CC2)n(C)n1 [Example 760, N-cyclopropyl-N-(3-(4-(cyclopropylamino)-8-fluoroquinazolin-6-yl)benzyl)-1,3-dimethyl-1H-pyrazole-5-carboxamide]	93%
N#CCC(=O)N(Cc1cccc(-c2ccc3ncnc(NC4CC4)c3c2)c1)c1cccnc1 [Example 195, 2-cyano-N-[3-(4-cyclopropylamino-quinazolin-6-yl)-benzyl]-N-pyridin-3-yl-acetamide]	40%
O=C1CC2(CCCC2)CC(=O)N1Cc1cccc(-c2ccc3ncnc(NC4CC4)c3c2)c1 [Example 243, 8-[3-(4-cyclopropylamino-quinazolin-6-yl)-benzyl]-8-aza-spiro[4.5]decane-7,9-dione; hydrochloride]	39%
CC(C)CN(Cc1cccc(-c2ccc3ncnc(N4CCOCC4)c3c2)c1)C(=O)c1cccs1 [Example 29, thiophene-2-carboxylic acid isobutyl-[3-(4-morpholin-4-yl-quinazolin-6-yl)-benzyl]-amide]	46%
COc1ccc(C(=O)N(Cc2ccccc2)Cc2cccc(-c3ccc4ncnc(NC(C)C)c4c3)c2)cc1 [Example 155, N-benzyl-N-[3-(4-isopropylamino-quinazolin-6-yl)-benzyl]-4-methoxy-benzamide]	67%
O=S(=O)(c1cccs1)N(Cc1cccc(-c2cc(F)c3ncnc(NC4CC4)c3c2)c1)C1CC1 [Example 701, N-cyclopropyl-N-(3-(4-(cyclopropylamino)-8-fluoroquinazolin-6-yl)benzyl)thiophene-2-sulfonamide]	93%
O=C(c1cccnc1)N(Cc1cccc(-c2cc(F)c3ncnc(NC4CC4)c3c2)c1)C1CC1 [Example 781, N-cyclopropyl-N-(3-(4-(cyclopropylamino)-8-fluoroquinazolin-6-yl)benzyl)nicotinamide]	67%
Cc1cc(CNC2CC2)cc(-c2ccc3ncnc(NC4CC4)c3c2)c1 [Example 306, N-cyclopropyl-6-(3-((cyclopropylamino)methyl)-5-methylphenyl)quinazoline-4-amine]	33%
CC(=O)N(Cc1cncc(-c2ccc3ncnc(NC4CC4)c3c2)c1)C1CC1 [Example 240, N-cyclopropyl-N-[5-(4-cyclopropylamino-quinazolin-6-yl)-pyridin-3-yl-methyl]-acetamide]	47%
Cc1cc(C(=O)N(Cc2cccc(-c3ccc4nc(C)nc(NC5CC5)c4c3)c2)C2CC2)n(C)n1 [Example 485, N-cyclopropyl-N-(3-(4-(cyclopropylamino)-2-methylquinazolin-6-yl)benzyl)-1,3-dimethyl-1H-pyrazole-5-carboxamide]	32%
O=C(COc1ccccc1)N(Cc1cccc(-c2ccc3ncnc(N4CCCC4)c3c2)c1)C1CC1 [Example 145, N-cyclopropyl-2-phenoxy-N-[3-(4-pyrrolidin-1-yl-quinazolin-6-yl)-benzyl]-acetamide]	53%
CCCCC(=O)N(Cc1cc(-c2ccc3nc(C)nc(NC4CC4)c3c2)ccc1F)C1CC1 [Example 540, N-cyclopropyl-N-(5-(4-(cyclopropylamino)-2-methylquinazolin-6-yl)-2-fluorobenzyl)pentanamide]	91%
